In assay [1] the target is T1, mTORC2 (Homo sapiens, UniProt P42345+Q6R327+Q9BPZ7+Q9BVC4). Kind of assay: Inhibition of mTORC2 in human MCF7 cells assessed as measuring phosphorylated AKT incubated for 2 hrs by AlphaLISA assay. Type of assay: cell-based. (In general: Bead proximity is the source of the signal in Alpha formats.)
In assay [2] the target is T2, mTORC1 (Homo sapiens, UniProt P42345+Q8N122+Q9BVC4). Kind of assay: Inhibition of mTORC1 in human MCF7 cells assessed as measuring phosphorylated S6K1 incubated for 2 hrs by AlphaLISA assay. Type of assay: cell-based.
Assay [3] in a line: Inhibition of mTORC1 in mouse MEF TSC1-/- cells assessed as measuring phosphorylated S6 level incubated for 2 hrs by Hoechst staining based fluorescence assay. Type of assay: cell-based.
Assay [4] has as its target T1, mTORC2. Kind of assay: Inhibition of mTORC2 (unknown origin). Type of assay: protein-complex assay.
The target in assay [5] is T2, mTORC1. Description: Inhibition of mTORC1 (unknown origin). Format: protein-complex assay.

T1 sequence (Q6R327 whole entry, other chains not shown): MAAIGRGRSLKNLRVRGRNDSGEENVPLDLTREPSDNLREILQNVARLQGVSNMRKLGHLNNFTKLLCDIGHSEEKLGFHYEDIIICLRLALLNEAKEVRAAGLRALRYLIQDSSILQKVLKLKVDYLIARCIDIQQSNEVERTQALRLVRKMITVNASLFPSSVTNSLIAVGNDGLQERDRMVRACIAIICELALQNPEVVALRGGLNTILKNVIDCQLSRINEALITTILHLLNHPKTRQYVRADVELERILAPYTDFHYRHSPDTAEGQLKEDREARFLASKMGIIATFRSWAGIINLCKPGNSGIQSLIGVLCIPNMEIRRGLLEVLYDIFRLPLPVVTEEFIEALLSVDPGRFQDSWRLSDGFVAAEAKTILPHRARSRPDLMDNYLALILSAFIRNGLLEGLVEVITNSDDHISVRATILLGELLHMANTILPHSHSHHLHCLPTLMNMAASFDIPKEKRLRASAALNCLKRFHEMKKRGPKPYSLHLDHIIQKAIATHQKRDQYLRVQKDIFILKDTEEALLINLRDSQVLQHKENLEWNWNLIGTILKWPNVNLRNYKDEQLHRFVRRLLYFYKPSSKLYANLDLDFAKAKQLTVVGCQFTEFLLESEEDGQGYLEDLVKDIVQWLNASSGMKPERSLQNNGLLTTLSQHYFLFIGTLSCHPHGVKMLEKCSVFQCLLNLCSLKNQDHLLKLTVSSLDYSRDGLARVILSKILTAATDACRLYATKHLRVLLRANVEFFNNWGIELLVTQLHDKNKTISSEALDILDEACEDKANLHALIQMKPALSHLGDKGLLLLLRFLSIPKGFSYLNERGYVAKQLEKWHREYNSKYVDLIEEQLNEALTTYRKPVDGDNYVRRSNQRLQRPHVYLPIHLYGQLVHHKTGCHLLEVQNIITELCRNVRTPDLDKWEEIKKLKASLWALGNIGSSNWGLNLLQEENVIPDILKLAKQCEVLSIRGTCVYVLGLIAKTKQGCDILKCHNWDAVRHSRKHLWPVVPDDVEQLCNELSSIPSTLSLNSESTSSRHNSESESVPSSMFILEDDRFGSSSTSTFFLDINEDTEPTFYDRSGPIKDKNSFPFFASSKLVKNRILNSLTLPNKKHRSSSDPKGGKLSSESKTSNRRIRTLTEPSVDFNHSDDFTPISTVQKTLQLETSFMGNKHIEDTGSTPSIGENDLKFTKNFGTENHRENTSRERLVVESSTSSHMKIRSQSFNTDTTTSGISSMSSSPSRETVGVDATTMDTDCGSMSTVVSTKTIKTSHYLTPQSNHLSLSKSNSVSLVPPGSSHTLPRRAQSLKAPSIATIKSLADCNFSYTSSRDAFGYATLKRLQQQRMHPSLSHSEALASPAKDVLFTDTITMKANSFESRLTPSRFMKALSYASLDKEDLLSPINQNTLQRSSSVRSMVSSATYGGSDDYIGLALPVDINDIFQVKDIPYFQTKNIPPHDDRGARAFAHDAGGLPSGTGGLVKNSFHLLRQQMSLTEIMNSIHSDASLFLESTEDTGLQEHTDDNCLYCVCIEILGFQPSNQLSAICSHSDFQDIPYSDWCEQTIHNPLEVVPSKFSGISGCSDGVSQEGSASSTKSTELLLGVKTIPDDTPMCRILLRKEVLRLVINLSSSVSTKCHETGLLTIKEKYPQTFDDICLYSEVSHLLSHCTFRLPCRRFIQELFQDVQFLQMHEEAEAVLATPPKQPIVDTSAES
T1 sequence (Q9BPZ7 2-522 limits assumed, other chains not shown): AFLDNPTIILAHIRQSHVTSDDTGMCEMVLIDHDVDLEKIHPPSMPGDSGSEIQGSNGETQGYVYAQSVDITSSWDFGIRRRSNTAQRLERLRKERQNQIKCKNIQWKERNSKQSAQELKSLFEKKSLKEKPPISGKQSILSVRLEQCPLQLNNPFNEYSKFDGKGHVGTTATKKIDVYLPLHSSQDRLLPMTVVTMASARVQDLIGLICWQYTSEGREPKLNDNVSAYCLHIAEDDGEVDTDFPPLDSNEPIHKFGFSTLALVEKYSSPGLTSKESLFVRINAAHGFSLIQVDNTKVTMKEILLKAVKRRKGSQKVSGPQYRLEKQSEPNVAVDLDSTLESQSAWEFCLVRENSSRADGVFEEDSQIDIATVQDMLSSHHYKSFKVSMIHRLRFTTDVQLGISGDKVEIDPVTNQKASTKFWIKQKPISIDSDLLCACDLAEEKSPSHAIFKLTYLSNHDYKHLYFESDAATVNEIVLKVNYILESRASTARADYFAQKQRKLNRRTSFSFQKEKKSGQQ
T1 sequence (Q9BVC4 whole entry, other chains not shown): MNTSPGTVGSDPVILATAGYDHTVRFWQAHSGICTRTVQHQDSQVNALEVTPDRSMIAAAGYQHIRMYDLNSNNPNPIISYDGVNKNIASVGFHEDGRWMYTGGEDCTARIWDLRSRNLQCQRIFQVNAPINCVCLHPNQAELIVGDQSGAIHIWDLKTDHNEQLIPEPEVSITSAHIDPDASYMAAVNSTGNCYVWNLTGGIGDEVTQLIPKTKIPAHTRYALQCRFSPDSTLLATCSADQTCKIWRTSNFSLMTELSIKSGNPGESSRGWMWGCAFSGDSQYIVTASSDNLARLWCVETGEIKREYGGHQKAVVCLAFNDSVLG

As usually defined, the IC50 is the concentration at which inhibition is half-maximal. Turning to `Cc1cc(C)c(C(=O)N2CCN(c3ncccc3S(N)(=O)=O)CC2)nc1NC1CCN(c2ccccc2C#N)CC1`, the IC50 in assay [1] was over 10000 nM; in assay [2], 10 nM.
In the case of `CO[C@@H]1C[C@H](C[C@@H](C)[C@@H]2CC(=O)[C@H](C)/C=C(\C)[C@@H](O)[C@@H](OC)C(=O)[C@H](C)C[C@H](C)/C=C/C=C/C=C(\C)C(N3CCS3(=O)=O)C[C@@H]3CC[C@@H](C)[C@@](O)(O3)C(=O)C(=O)N3CCCC[C@H]3C(=O)O2)CC[C@@H]1n1cnnn1` (some centres not stated), the IC50 in assay [3] (Mus musculus, MEF, 2 h) came out at 0.374 nM.
Take `Cc1cc(C)c(C(=O)N2CCN(c3ncccc3F)[C@H](CO)C2)cc1NC1CCN(c2ccccc2C#N)CC1`: the results for the IC50 in assay [1] and in assay [2] were over 10000 nM and 10 nM, respectively.
Regarding `CO[C@@H]1C[C@H](C[C@@H](C)[C@@H]2CC(=O)[C@H](C)/C=C(\C)[C@@H](O)[C@@H](OC)C(=O)[C@H](C)C[C@H](C)/C=C/C=C/C=C(\C)C(N3CCS3(=O)=O)C[C@@H]3CC[C@@H](C)[C@@](O)(O3)C(=O)C(=O)N3CCCC[C@H]3C(=O)O2)CC[C@H]1O` (some centres not stated), the IC50 in assay [3] (Mus musculus, MEF, 2 h) stood at 0.17 nM.
In the case of `CC1(C)COCCN1c1nc(-c2cnc(N)cc2C(F)F)nc(N2CCOCC2)n1`, the IC50 in assay [4] was 54 nM; in assay [5] it was 45 nM.
For `Cn1c(C(=O)N2CCN(c3ccccc3)CC2)cc(CN2CCN(c3ccccc3C#N)CC2)c1C#N`, the figures for the IC50 in assay [1] and in assay [2] were over 10000 nM and 10 nM, respectively.
As for `Nc1ncc(-c2nc(N3C4CCC3COC4)nc(N3C4COCC3COC4)n2)c(C(F)F)n1`, the half-inhibitory concentration (IC50) is 219 nM in assay [4] and 79 nM in assay [5].
Take `Cc1cc(C)c(C(=O)N2CCN(c3ccc(F)cn3)[C@H](CO)C2)c(C)c1NC1CCN(c2cccnn2)CC1`: the half-maximal inhibitory concentration (IC50) in assay [1] was over 10000 nM; in assay [2] it was 10 nM.
In the same order, the values of `Cc1cc(C)c(C(=O)N2CCN(c3cccnc3S(N)(=O)=O)CC2)c(C)c1NC1CCN(c2ccccc2C#N)CC1` are over 10000 nM and 10 nM.
Turning to `CO[C@@H]1C[C@H](C[C@@H](C)[C@@H]2CC(=O)[C@H](C)/C=C(\C)[C@@H](O)[C@@H](OC)C(=O)[C@H](C)C[C@H](C)/C=C/C=C/C=C(\C)C(N3CCCS3(=O)=O)C[C@@H]3CC[C@@H](C)[C@@](O)(O3)C(=O)C(=O)N3CCCC[C@H]3C(=O)O2)CC[C@H]1O` (some centres not stated), the IC50 in assay [3] (Mus musculus, MEF, 2 h) was 1.36 nM.
`CO[C@@H]1C[C@H](C[C@@H](C)[C@@H]2CC(=O)[C@H](C)/C=C(\C)[C@@H](O)[C@@H](OC)C(=O)[C@H](C)C[C@H](C)/C=C/C=C/C=C(\C)[C@@H](OCC3COCCOCCOCCO3)C[C@@H]3CC[C@@H](C)[C@@](O)(O3)C(=O)C(=O)N3CCCC[C@H]3C(=O)O2)CC[C@H]1O` (some centres not stated): the IC50 was at least 100 nM in assay [4] and under 0.1 nM in assay [5].
Regarding `Cc1cc(C)c(C(=O)N2CCN(c3ccccc3)C(C(N)=O)C2)c(C)c1NC1CCN(c2ccc(F)cc2C#N)CC1` (configuration not stated), the IC50 in assay [1] was over 10000 nM; in assay [2] it was 10 nM.
As for `CO[C@@H]1C[C@H](C[C@@H](C)[C@@H]2CC(=O)[C@H](C)/C=C(\C)[C@@H](O)[C@@H](OC)C(=O)[C@H](C)C[C@H](C)/C=C/C=C/C=C(\C)[C@@H](OCCOCCO)C[C@@H]3CC[C@@H](C)[C@@](O)(O3)C(=O)C(=O)N3CCCC[C@H]3C(=O)O2)CC[C@H]1O`, the results for the IC50 in assay [4] and in assay [5] were at least 100 nM and under 0.1 nM, respectively.
The compound `CO[C@H]1C[C@@H]2CC[C@@H](C)[C@@](O)(O2)C(=O)C(=O)N2CCCC[C@H]2C(=O)O[C@H]([C@H](C)C[C@@H]2CC[C@@H](OCCO)[C@H](OC)C2)CC(=O)[C@H](C)/C=C(\C)[C@@H](O)[C@@H](OC)C(=O)[C@H](C)C[C@H](C)/C=C/C=C/C=C/1C` [EVEROLIMUS] came in with an IC50 in assay [5] of 0.05 nM.
As for `Cc1c(CN2C3CCC2CN(c2ccccc2C#N)C3)cc(C(=O)N2CCN(c3ccccn3)CC2)n1C`, the IC50 was over 10000 nM in assay [1] and 10 nM in assay [2].
In the case of `Cc1cc(C)c(C(=O)N2CCN(c3ccccn3)[C@H](CO)C2)cc1NC1CCN(c2ccccc2OC(F)F)CC1`, the IC50 in assay [1] was over 10000 nM; in assay [2], 10 nM.
In the same order, the values of `Cc1c(CN2CCN(c3ccccc3C#N)CC2)cc(C(=O)N2CCN(c3oc(C4CC4)nc3C#N)CC2)n1C` are over 10000 nM and 10 nM.
Take `Nc1ncc(-c2nc(N3CCOCC3)c3c(n2)N2CCOC[C@@H]2C3)cn1`: the IC50 turned out to be 154 nM in assay [4] and 98 nM in assay [5].
Regarding `CC1(C)COCCN1c1nc(-c2cnc(N)cc2C(F)F)nc(N2CCOCC2(C)C)n1`, the IC50 in assay [4] amounted to 106 nM; in assay [5], 47 nM.
As for `Cc1cc(C)c(C(=O)N2CCN(c3cccc(F)c3[S@](C)(=N)=O)CC2)cc1NC1CCN(c2ccccc2C#N)CC1`, the IC50 in assay [1] was over 10000 nM; in assay [2], 10 nM.
With `CO[C@@H]1C[C@H](C[C@@H](C)[C@@H]2CC(=O)[C@H](C)/C=C(\C)[C@@H](O)[C@@H](OC)C(=O)[C@H](C)C[C@H](C)/C=C/C=C/C=C(\C)[C@@H](OCCOCCOCCO)C[C@@H]3CC[C@@H](C)[C@@](O)(O3)C(=O)C(=O)N3CCCC[C@H]3C(=O)O2)CC[C@H]1O`, the IC50 in assay [4] is at least 100 nM; in assay [5], under 0.1 nM.
Consider `Nc1ncc(-c2nc(N3CCOCC3)nc3c2C[C@@H]2COCCN32)cn1`, for which the IC50 in assay [4] is 575 nM; in assay [5] it was 574 nM.
`Cc1c(CN2CCN(c3ccccc3Cl)CC2)cc(C(=O)N2CCN(c3cccc(F)c3C#N)C[C@@H]2C)n1C`: the IC50 was over 10000 nM in assay [1] and 10 nM in assay [2].
As for `Cc1cc(C)c(C(=O)N2CCN(c3cncc4cn[nH]c34)CC2)nc1NC1CCN(c2ccccc2C#N)CC1`, the results for the IC50 in assay [1] and in assay [2] were over 10000 nM and 10 nM, respectively.
In the case of `C[C@H]1COCCN1c1nc(-c2cnc(N)cc2C(F)F)nc(N2CCOCC2)n1`, the IC50 is 74 nM in assay [4] and 68 nM in assay [5].
Consider `Cc1c(CN2CCN(c3ncccc3Cl)CC2)cc(C(=O)N2CCN(c3cc(F)c(F)cc3C#N)CC2)n1C`, for which the IC50 is over 10000 nM in assay [1] and 10 nM in assay [2].
Consider `CO[C@@H]1C[C@H](C[C@@H](C)[C@@H]2CC(=O)[C@H](C)/C=C(\C)[C@@H](O)[C@@H](OC)C(=O)[C@H](C)C[C@H](C)/C=C/C=C/C=C(\C)C(N3CCCS3(=O)=O)C[C@@H]3CC[C@@H](C)[C@@](O)(O3)C(=O)C(=O)N3CCCC[C@H]3C(=O)O2)CC[C@H]1OCCO` (stereo in doubt; 12), for which the IC50 in assay [3] (mef) amounted to 22.5 nM.
For the compound `CO[C@@H]1C[C@H](C[C@@H](C)[C@@H]2CC(=O)[C@H](C)/C=C(\C)[C@@H](O)[C@@H](OC)C(=O)[C@H](C)C[C@H](C)/C=C/C=C/C=C(\C)C(N3CCCCS3(=O)=O)C[C@@H]3CC[C@@H](C)[C@@](O)(O3)C(=O)C(=O)N3CCCC[C@H]3C(=O)O2)CC[C@H]1O` (some centres not stated), the IC50 in assay [3] (Mus musculus, MEF, 2 h) worked out at 3.4 nM.
For the compound `CO[C@@H]1C[C@H](C[C@@H](C)[C@@H]2CC(=O)[C@H](C)/C=C(\C)[C@@H](O)[C@@H](OC)C(=O)[C@H](C)C[C@H](C)/C=C/C=C/C=C(\C)C(N3CCCS3(=O)=O)C[C@@H]3CC[C@@H](C)[C@@](O)(O3)C(=O)C(=O)N3CCCC[C@H]3C(=O)O2)CC[C@H]1OCCO` (stereo in doubt; 13), the IC50 in assay [3] (mef) turned out to be 8.3 nM.
Take `Nc1ncc(-c2nc(N3CCOCC3)nc3c2C[C@H]2COCCN32)cn1`: the IC50 in assay [4] came out at 1260 nM; in assay [5], 594 nM.
Turning to `C[C@H]1COCCN1c1nc(-c2cnc(N)nc2C(F)F)nc(N2CCOCC2)n1`, the IC50 in assay [4] is 35 nM; in assay [5] it was 72 nM.
`CO[C@@H]1C[C@H](C[C@@H](C)[C@@H]2CC(=O)[C@H](C)/C=C(\C)[C@@H](O)[C@@H](OC)C(=O)[C@H](C)C[C@H](C)/C=C/C=C/C=C(\C)[C@H](N3CCCS3(=O)=O)C[C@@H]3CC[C@@H](C)[C@@](O)(O3)C(=O)C(=O)N3CCCC[C@H]3C(=O)O2)CC[C@H]1O`: in assay [3] (Mus musculus, MEF, 2 h), the IC50 was determined as 0.274 nM.
With `CO[C@@H]1C[C@H](C[C@@H](C)[C@@H]2CC(=O)[C@H](C)/C=C(\C)[C@@H](O)[C@@H](OC)C(=O)[C@H](C)C[C@H](C)/C=C/C=C/C=C(\C)[C@@H](OCCSCCSCCO)C[C@@H]3CC[C@@H](C)[C@@](O)(O3)C(=O)C(=O)N3CCCC[C@H]3C(=O)O2)CC[C@H]1O`, the values for the IC50 in assay [4] and in assay [5] were at least 100 nM and under 0.1 nM, respectively.
Take `CO[C@@H]1C[C@H](C[C@@H](C)[C@@H]2CC(=O)[C@H](C)/C=C(\C)[C@@H](O)[C@@H](OC)C(=O)[C@H](C)C[C@H](C)/C=C/C=C/C=C(\C)C(N3CCS3(=O)=O)C[C@@H]3CC[C@@H](C)[C@@](O)(O3)C(=O)C(=O)N3CCCC[C@H]3C(=O)O2)CC[C@H]1OCCO` (some centres not stated): in assay [3] (Mus musculus, MEF, 2 h), the IC50 worked out at 0.328 nM.
As to `CNC(=O)c1cc(F)ccc1N1CCN(C(=O)c2cc(NC3CCN(c4ccccc4C#N)CC3)c(C)cc2C)CC1`, the IC50 in assay [1] is over 10000 nM; in assay [2], 10 nM.
In the case of `CO[C@@H]1C[C@H](C[C@@H](C)[C@@H]2CC(=O)[C@H](C)/C=C(\C)[C@@H](O)[C@@H](OC)C(=O)[C@H](C)C[C@H](C)/C=C/C=C/C=C(\C)[C@@H](OCCOCCOCCOCCOCCOCCOCCOCCO)C[C@@H]3CC[C@@H](C)[C@@](O)(O3)C(=O)C(=O)N3CCCC[C@H]3C(=O)O2)CC[C@H]1O`, the IC50 is at least 100 nM in assay [4] and under 0.1 nM in assay [5].
For the compound `Cn1c(C(=O)N2CCN(c3ccccc3)CC2)cc(CN2CCN(c3ccccc3Cl)CC2)c1C#N`, the IC50 in assay [1] is over 10000 nM; in assay [2] it was 10 nM.
For `Nc1ncc(-c2nc(N3CCOCC3)c3c(n2)N2CCOC[C@H]2C3)cn1`, the 50% inhibitory concentration (IC50) in assay [4] came to 145 nM; in assay [5], 65 nM.

Source of the values: ChEMBL document CHEMBL5214923, “Contemporary mTOR inhibitor scaffolds to diseases breakdown: A patent review (2015-2021)” (Eur J Med Chem, 2022).
